# Results reported in ChEMBL document CHEMBL4270663, “6-Benzhydryl-4-amino-quinolin-2-ones as Potent Cannabinoid Type 1 (CB1) Receptor Inverse Agonists and Chemical Modifications for Peripheral Selectivity” (J Med Chem, 2018).
# Calls of active or inactive are those of the source. The rule behind the calls is not given here.
# How the values were obtained:
# [1] = Drug uptake in brain of diet-induced obese C57BL/6J mouse model at 10 mg/kg, po administered as daily dose measured at 2 hrs post last dose on day 23; assay type: ADME, organism-based; settings: in vivo
# Cannabinoid receptor 1 [2] = biological target: T1, Cannabinoid receptor 1 (Homo sapiens, UniProt P21554); test: Inverse agonist activity at human CB1 receptor expressed in HEK293 cells assessed as inhibition of forskolin-induced cAMP accumulation after 30 mins by HTRF assay; assay type: functional, cell-based
# Cannabinoid receptor 2 = Cannabinoid receptor 2 (Homo sapiens, UniProt P34972); test: Inverse agonist activity at human CB2 receptor expressed in HEK293 cells assessed as […] cAMP accumulation after 30 mins by HTRF assay; assay type: functional, cell-based
# [3] = Metabolic stability in human liver microsomes assessed as parent compound remaining at 1 uM after 10 mins in presence of NADPH; assay type: ADME, microsome; settings: read-out: Stability
# Cytochrome P450 1A2 = biological target: T2, Cytochrome P450 1A2 (Homo sapiens, UniProt P05177); test: Inhibition of CYP1A2 in human liver microsomes using phenacetin as substrate after 10 to 30 mins by LC/MS analysis; assay type: ADME
# T2 sequence (P05177 whole entry): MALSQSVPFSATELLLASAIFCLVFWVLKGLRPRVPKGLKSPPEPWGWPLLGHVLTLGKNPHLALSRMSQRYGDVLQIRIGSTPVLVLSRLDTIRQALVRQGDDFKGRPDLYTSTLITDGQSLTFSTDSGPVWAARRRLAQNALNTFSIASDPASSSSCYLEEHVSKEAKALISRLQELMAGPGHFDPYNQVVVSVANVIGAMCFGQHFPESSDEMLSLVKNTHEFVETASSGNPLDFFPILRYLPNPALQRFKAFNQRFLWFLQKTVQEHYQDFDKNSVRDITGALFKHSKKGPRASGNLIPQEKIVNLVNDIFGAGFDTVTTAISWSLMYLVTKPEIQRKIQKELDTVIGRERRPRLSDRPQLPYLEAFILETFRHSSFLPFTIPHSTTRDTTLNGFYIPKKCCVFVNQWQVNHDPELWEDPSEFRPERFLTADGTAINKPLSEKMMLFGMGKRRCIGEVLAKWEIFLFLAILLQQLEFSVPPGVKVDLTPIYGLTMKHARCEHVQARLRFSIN
# Cytochrome P450 2C19 = Cytochrome P450 2C19 (Homo sapiens, UniProt P33261); test: Inhibition of CYP2C19 in human liver microsomes using (S)-mephenytoin as substrate after 10 to 30 mins by LC/MS analysis; assay type: ADME
# Cannabinoid receptor 1 [4] = biological target: T1, Cannabinoid receptor 1; test: biochemical; assay type: cell-based, CHO
# [5] = Drug uptake in C57BL/6J mouse brain at 20 mg/kg, po measured after 1 hr; assay type: ADME, organism-based; settings: in vivo
# [6] = Drug uptake in C57BL/6J mouse brain at 20 mg/kg, po measured after 4 hrs; assay type: ADME, organism-based; settings: in vivo
# [7] = Ratio of drug level in C57BL/6J mouse brain to plasma at 20 mg/kg, po measured after 1 hr; assay type: ADME, organism-based; settings: read-out: BPR
# [8] = Drug uptake in brain of wild type CF-1 mouse at 20 mg/kg, po measured at 2 hrs post last dose on day 2; assay type: ADME, organism-based; settings: in vivo
# [9] = Ratio of drug level in brain to plasma of wild type CF-1 mouse at 20 mg/kg, po; assay type: ADME, organism-based; settings: read-out: BPR
# [10] = Ratio of drug level in brain to plasma of MDR1a knockout CF-1 mouse at 20 mg/kg, po; assay type: ADME, organism-based; settings: read-out: BPR
# Cannabinoid receptor 1 [11] = biological target: T1, Cannabinoid receptor 1; test: Potency index, ratio of rimonabant IC50 to compound IC50 for displacement of [3H]-CP-55940 from human CB1 receptor expressed in CHO-K1 cell membranes
# [12] = Protein binding in plasma (unknown origin); assay type: ADME, cell-free; settings: unidentified, read-out: PPB
# [13] = Cmax in C57BL/6J mouse at 20 mg/kg, po administered via gavage by LC-MS/MS analysis; assay type: ADME, organism-based; set-up: dose 20 mg/kg, route oral; settings: in vivo
# [14] = AUClast in C57BL/6J mouse at 20 mg/kg, po administered via gavage by LC-MS/MS analysis; assay type: ADME, organism-based; settings: in vivo
# [15] = Half life in C57BL/6J mouse at 20 mg/kg, po administered via gavage by LC-MS/MS analysis; assay type: ADME, organism-based; settings: in vivo
# [16] = Clearance in C57BL/6J mouse at 5 mg/kg, iv or 20 mg/kg, po administered via gavage by LC-MS/MS analysis; assay type: ADME, organism-based; settings: in vivo
# [17] = Oral bioavailability in C57BL/6J mouse at 20 mg/kg administered via gavage by LC-MS/MS analysis; assay type: ADME, organism-based; settings: in vivo
# [18] = Ratio of drug level in brain to plasma of diet-induced obese C57BL/6J mouse model at 30 mg/kg administered as daily dose measured at 2 hrs post last dose on day 5; assay type: ADME, organism-based; settings: read-out: BPR
# [19] = Drug uptake in plasma of diet-induced obese C57BL/6J mouse model at 10 mg/kg, po administered as daily dose measured at 2 hrs post last dose on day 1; assay type: ADME, organism-based
# [20] = Drug uptake in plasma of diet-induced obese C57BL/6J mouse model at 3 mg/kg, po administered as daily dose measured at 2 hrs post last dose on day 22; assay type: ADME, organism-based
# [21] = Drug uptake in plasma of diet-induced obese C57BL/6J mouse model at 10 mg/kg, po administered as daily dose measured at 2 hrs post last dose on day 22; assay type: ADME, organism-based
# [22] = Drug uptake in brain of diet-induced obese C57BL/6J mouse model at 10 mg/kg, po administered as daily dose measured at 2 hrs post last dose on day 2; assay type: ADME, organism-based; settings: in vivo
# [23] = Drug uptake in brain of diet-induced obese C57BL/6J mouse model at 1 mg/kg, po administered as daily dose measured at 2 hrs post last dose on day 23; assay type: ADME, organism-based; settings: in vivo
# [24] = Drug uptake in brain of diet-induced obese C57BL/6J mouse model at 3 mg/kg, po administered as daily dose measured at 2 hrs post last dose on day 23; assay type: ADME, organism-based; settings: in vivo
# [25] = Ratio of drug level in brain to plasma of diet-induced obese C57BL/6J mouse model at 1 mg/kg, po administered as daily dose measured at 2 hrs post last dose on day 23; assay type: ADME, organism-based; settings: read-out: BPR
# Mus musculus [26] = test: Antiobesity activity in diet induced obese C57BL/6J mouse model assessed as decrease in body weight at 30 mg/kg administered as daily dose measured every day for 5 days; assay type: functional, organism-based
# Mus musculus [27] = test: Antiobesity activity in diet induced obese C57BL/6J mouse model assessed as decrease in body weight at 3 to 10 mg/kg, po administered as daily dose measured every day for 5 days and continuing every other day till day 17; assay type: functional, organism-based
# Mus musculus [28] = test: Antiobesity activity in diet induced obese C57BL/6J mouse model assessed as decrease in food intake at 3 mg/kg, po administered as daily dose measured every day for 5 days and continuing every other day till day 8 and 15; assay type: functional, organism-based
# Mus musculus [29] = test: Induction of insulin sensitivity in diet induced obese C57BL/6J mouse model at 3 to 10 mg/kg, po administered as daily dose measured at day 26 post last dose; assay type: functional, organism-based
# Mus musculus [30] = test: In vivo receptor occupancy at CB1 receptor in brain of diet induced obese C57BL/6J mouse model at 30 mg/kg, po administered as daily dose for 5 days measured 10 mins post last dose in presence of [3H]-CP-55940 relative to control; assay type: functional
# T1 sequence (P21554 whole entry): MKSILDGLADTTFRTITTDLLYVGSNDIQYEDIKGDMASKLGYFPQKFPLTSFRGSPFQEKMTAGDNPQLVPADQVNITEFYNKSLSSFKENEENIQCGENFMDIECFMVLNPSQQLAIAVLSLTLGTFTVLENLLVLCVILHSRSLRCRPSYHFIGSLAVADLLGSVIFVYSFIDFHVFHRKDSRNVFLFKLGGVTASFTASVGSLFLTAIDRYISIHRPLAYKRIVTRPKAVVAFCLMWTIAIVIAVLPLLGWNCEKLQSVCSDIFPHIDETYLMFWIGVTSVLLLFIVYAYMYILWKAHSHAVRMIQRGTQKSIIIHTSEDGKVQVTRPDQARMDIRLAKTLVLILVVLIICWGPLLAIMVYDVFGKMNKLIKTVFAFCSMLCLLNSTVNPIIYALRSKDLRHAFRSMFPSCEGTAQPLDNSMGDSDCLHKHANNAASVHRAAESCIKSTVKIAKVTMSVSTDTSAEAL
# Chain of Cytochrome P450 2C19 (P33261 whole entry): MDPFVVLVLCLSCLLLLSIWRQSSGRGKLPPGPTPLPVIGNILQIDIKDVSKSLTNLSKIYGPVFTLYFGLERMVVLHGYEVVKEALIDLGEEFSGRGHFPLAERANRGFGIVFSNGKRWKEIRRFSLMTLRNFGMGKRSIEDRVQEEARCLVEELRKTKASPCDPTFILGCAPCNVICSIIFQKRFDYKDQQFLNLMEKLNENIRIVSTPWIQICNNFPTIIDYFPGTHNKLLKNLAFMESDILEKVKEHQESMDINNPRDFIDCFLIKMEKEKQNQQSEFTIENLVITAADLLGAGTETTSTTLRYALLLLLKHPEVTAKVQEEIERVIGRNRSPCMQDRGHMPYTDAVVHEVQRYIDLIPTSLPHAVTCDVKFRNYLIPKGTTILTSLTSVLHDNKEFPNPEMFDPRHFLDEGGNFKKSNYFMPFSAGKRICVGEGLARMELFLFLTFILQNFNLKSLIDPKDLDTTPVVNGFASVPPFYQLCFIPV
# Chain of Cannabinoid receptor 2 (P34972 whole entry): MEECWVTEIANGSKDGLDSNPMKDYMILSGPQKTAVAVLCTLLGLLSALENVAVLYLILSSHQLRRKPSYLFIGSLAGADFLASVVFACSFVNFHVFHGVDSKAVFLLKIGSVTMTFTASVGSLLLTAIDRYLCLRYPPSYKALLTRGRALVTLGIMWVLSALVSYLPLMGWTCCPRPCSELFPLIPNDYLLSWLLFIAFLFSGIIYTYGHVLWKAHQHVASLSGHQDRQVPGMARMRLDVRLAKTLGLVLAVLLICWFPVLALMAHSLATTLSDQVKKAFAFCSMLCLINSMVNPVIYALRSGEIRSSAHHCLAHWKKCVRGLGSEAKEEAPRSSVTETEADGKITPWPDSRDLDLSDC
compound,measurement,setting,value
O=c1cc(NC2CCN(S(=O)(=O)C(F)(F)F)CC2)c2cc(C(c3ccc(Cl)cc3)c3ccc(Cl)cc3)ccc2[nH]1,Drug uptake,[1],0.329 nmol/g
same,EC50,Cannabinoid receptor 1 [2],8.2 to 8.3 nM
same,EC50,Cannabinoid receptor 2,> 10000 nM
same,"remaining at 10 min, 1 µM",[3],100%
same,IC50,Cytochrome P450 1A2,> 10000 nM
same,IC50,Cytochrome P450 2C19,> 10000 nM
same,IC50,Cannabinoid receptor 1 [4],1.3 nM
same,Drug uptake,[5],0.012 nmol/g
same,Drug uptake,[6],0.019 nmol/g
same,Kp at 1 h,[7],0.0073
same,Drug uptake,[8],0.104 nmol/g
same,Kp,[9],0.027
same,Kp,[10],0.72
same,Ratio IC50,Cannabinoid receptor 1 [11],6
same,fraction unbound,[12],0.0001
same,Cmax,[13],3.7 µM
same,AUC(0-t),[14],28.4 µM·h
same,half-life,[15],7.26 h
same,clearance,[16],2.21 mL/min/kg
same,bioavailability,[17],13%
same,Kp at 2 h,[18],0.024
same,concentration at 2 h,[19],4.08 µM
same,concentration at 2 h,[20],2.55 µM
same,concentration at 2 h,[21],8.65 µM
same,Drug uptake,[22],0.102 nmol/g
same,Drug uptake,[23],0.06 nmol/g
same,Drug uptake,[24],0.164 nmol/g
same,Kp at 2 h,[25],0.072
same,Activity,Mus musculus [26],Active
same,Activity,Mus musculus [27],Active
same,Activity,Mus musculus [28],Active
same,Activity,Mus musculus [29],Active
same,Occ,Mus musculus [30],71.6%
